According to patent US20070196421A1, “Soft tissue implants and drug combination compositions, and use thereof” (priority 2005, published 2007):
Where a name gives a salt, the structure may show the parent alone.

Assays:
[1] = test system: multiple drug-resistant strains of C. glabrata; test: antifungal activity against C. glabrata; format: cell-based; settings: antifungal agent used in combination with the manganese compound
S. aureus ATCC25923 C622 = test: MIC by microtitre broth dilution; format: cell-based; settings: Gram+, wt, Mueller Hinton broth, 37° C., 24 h
Procedure: (§1) MIC assays were conducted essentially as described by Amsterdam, D. 1996, “Susceptibility testing of antimicrobials in liquid media”, p. 52-111, in Loman, V., ed. Antibiotics in laboratory medicine, 4th ed. Williams and Wilkins, Baltimore, Md.

[2] = test system: P. aeruginosa PAE/K799 H187; test: MIC by microtitre broth dilution; format: cell-based; settings: Gram−, wt, Mueller Hinton broth, 37° C., 24 h
Procedure: as §1

[3] = test system: K. pneumoniae ATCC13883 C238; test: MIC by microtitre broth dilution; format: cell-based; settings: Gram−, wt, Mueller Hinton broth, 37° C., 24 h
Procedure: as §1

S. epidermidis C621 = test: MIC by microtitre broth dilution; format: cell-based; settings: Gram+, wt, Mueller Hinton broth, 37° C., 24 h
Procedure: as §1

S. pyogenes C721 = test: MIC by microtitre broth dilution; format: cell-based; settings: Gram+, wt, Todd Hewitt broth, 37° C., 24 h
Procedure: as §1

E. coli UB1005 C498 = test: MIC by microtitre broth dilution; format: cell-based; settings: Gram−, wt, Mueller Hinton broth, 37° C., 24 h
Procedure: as §1

[4] = test system: immunosuppressive agents, such as cyclosporine; test: potency of immunosuppressive agents (enhancer effect)
[5] = test system: carrageenan-induced paw edema; test: Rat carrageenan-induced paw edema model: paw swelling; format: in vivo; settings: local injection in paw at T-1 hr, Tmax = 6 hrs
Procedure: (§2) A dose-range finding study was performed to determine the anti-inflammatory activity of various ratios of methyl prednisolone acetate and amoxapine in a rat carrageenan-induced paw edema model. […] The molar ratio of methyl prednisolone acetate to amoxapine ranged from 1:1 to 1:300, using total doses of methyl prednisolone acetate of 0.01, 0.03 or 0.1 mg/kg.
(§3) The test agent (a combination of methyl prednisolone acetate and amoxapine), vehicle control, or reference agents (methyl prednisolone acetate, amoxapine, or Depo-Medrol®) were administered in the left hind foot pad of rats. After 60 minutes, paw edema was induced by injection of 100 μl of 1% carrageenan in the same foot pad. The paw volume was measured with a water displacement plethysmometer immediately prior to test agent injection (T−1h), at the time of carrageenan injection (T0h), and at T6h. Animals were euthanized by carbon dioxide inhalation. Paw tissue samples were collected and flash frozen in liquid nitrogen. Samples were assayed for TNF-α by enzyme-linked immunoassay (ELISA).

TNF-α = test: Rat carrageenan-induced paw edema model: TNF-α in paw tissue by ELISA; format: in vivo
Procedure: as §2, §3

[6] = cited from earlier work; for solubility in alcohol / ethanol (in words): alcohol or ethanol
p38 = p38 activation; format: cell-based
AP1 = AP1 activation; format: cell-based
glucocorticoid receptor = glucocorticoid receptor trafficking (mechanism study); format: cell-based
JNK = JNK activation; format: cell-based
NFAT = NFAT activation, translocation and transactivation; format: cell-based
[7] = test system: GRE reporter plasmid in T cells; test: transactivation of a transfected GRE reporter plasmid in T cells; format: cell-based

With `CCC(C)n1ncn(-c2ccc(N3CCN(c4ccc(OC[C@H]5CO[C@](Cn6cncn6)(c6ccc(Cl)cc6Cl)O5)cc4)CC3)cc2)c1=O` (mixture of isomers) [itraconazole] the “enhancement of antifungal activity by the manganese compound” value (“enhancement of antifungal activity” for short) [1] was “enhances”.
In the case of `Sc1ncc2[nH]cnc2n1` [2-mercaptopurine], the Minimum inhibitory concentration (S. aureus ATCC25923 C622) is reported as “N”, the Minimum inhibitory concentration [2] is reported as “N” and the Minimum inhibitory concentration [3] is reported as “N”. For the same compound, the Minimum inhibitory concentration (S. epidermidis C621) was “N”, the Minimum inhibitory concentration (S. pyogenes C721) was “N” and the Minimum inhibitory concentration (E. coli UB1005 C498) was “N”.
With `O=c1[nH]cc(F)c(=O)[nH]1` [5-fluorouracil, 5-FU] the Minimum inhibitory concentration (S. aureus ATCC25923 C622) was 10^−7 Molar, the Minimum inhibitory concentration [2] was 10^−5 Molar and the Minimum inhibitory concentration [3] was 10^−6 Molar. For the same compound, the Minimum inhibitory concentration (S. epidermidis C621) was 10^−7 Molar, the Minimum inhibitory concentration (S. pyogenes C721) was 10^−4 Molar and the Minimum inhibitory concentration (E. coli UB1005 C498) was 10^−6 Molar.
For `Sc1ncnc2nc[nH]c12` [6-mercaptopurine], the Minimum inhibitory concentration (S. aureus ATCC25923 C622) was “N”, the Minimum inhibitory concentration [2] was “N” and the Minimum inhibitory concentration [3] was “N”. For the same compound, the Minimum inhibitory concentration (S. epidermidis C621) was “N”, the Minimum inhibitory concentration (S. pyogenes C721) was “N” and the Minimum inhibitory concentration (E. coli UB1005 C498) was “N”.
For `Nc1ccn([C@@H]2O[C@H](CO)[C@@H](O)[C@@H]2O)c(=O)n1` [Cytarabine, cytarabine], the Minimum inhibitory concentration (S. aureus ATCC25923 C622) was “N”, the Minimum inhibitory concentration [2] was “N” and the Minimum inhibitory concentration [3] was “N”. The Minimum inhibitory concentration (S. epidermidis C621) was “N”, the Minimum inhibitory concentration (S. pyogenes C721) was “N” and the Minimum inhibitory concentration (E. coli UB1005 C498) was “N”.
In the case of `CCN(CC)C(C)CN1c2ccccc2Sc2ccccc21` (stereo not drawn) [Ethopropazine, ethopropazine], the “effect on the potency of immunosuppressive agents” value (“effect on the potency” below) [4] is reported as “increases the potency”.
In the case of `CN(C)C(=O)C(CCN1CCC(O)(c2ccc(Cl)cc2)CC1)(c1ccccc1)c1ccccc1` [Loperamide], the “effect on the potency” value [4] is reported as “increase the potency”.
In the case of `CC(=O)OCC(=O)[C@@]1(O)CC[C@H]2[C@@H]3C[C@H](C)C4=CC(=O)C=C[C@]4(C)[C@H]3[C@@H](O)C[C@@]21C` [MePredAc, methyl prednisolone acetate], the “Edema ± SEM” value ([5]; 0.01 mg/kg) is reported as 32.6 ± 5.3%, the “Edema ± SEM” value ([5]; 0.03 mg/kg) is reported as 26.2 ± 7.0% and the “Edema ± SEM” value ([5]; 0.1 mg/kg) is reported as 12.2 ± 1.8%. The “TNF-α ± SEM” value (TNF-α; 0.01 mg/kg) was 35.9 ± 11.3 pg/g, the “TNF-α ± SEM” value (TNF-α; 0.03 mg/kg) was 19.2 ± 3.1 pg/g and the “TNF-α ± SEM” value (TNF-α; 0.1 mg/kg) was 28.0 ± 6.0 pg/g.
For `Nc1ccc(/N=N/c2ccccc2)c(N)n1` [Phenazopyridine base, phenazopyridine], the “solubility in alcohol / ethanol (in words)” value [6] is given as “slightly soluble” and the “solubility in water (in words)” value [6] is given as “slightly soluble”.
For `NC(=O)c1ncn([C@@H]2O[C@H](CO)[C@@H](O)[C@H]2O)n1` [Ribavirin, ribavirin], the “solubility in alcohol / ethanol (in words)” value [6] is given as “slightly soluble”.
With `CC[C@@]1(O)C(=O)OCc2c1cc1n(c2=O)Cc2cc3ccccc3nc2-1` [camptothecin, camptothecins] the Minimum inhibitory concentration (S. aureus ATCC25923 C622) was “N”, the Minimum inhibitory concentration [2] was “N” and the Minimum inhibitory concentration [3] was “N”. The Minimum inhibitory concentration (S. epidermidis C621) was 10^−4 Molar, the Minimum inhibitory concentration (S. pyogenes C721) was “N” and the Minimum inhibitory concentration (E. coli UB1005 C498) was “N”.
With `CC[C@H](C)C[C@H](C)CCCCCCCCC(=O)N[C@H]1C[C@@H](O)[C@@H](NCCN)NC(=O)[C@@H]2[C@@H](O)CCN2C(=O)[C@H]([C@H](O)CCN)NC(=O)[C@H]([C@H](O)[C@@H](O)c2ccc(O)cc2)NC(=O)[C@@H]2C[C@@H](O)CN2C(=O)[C@H]([C@@H](C)O)NC1=O` [caspofungin] the “enhancement of antifungal activity” value [1] was “enhances”.
In the case of `N.N.[Cl][Pt][Cl]` [cisplatin], the Minimum inhibitory concentration (S. aureus ATCC25923 C622) is reported as “N”, the Minimum inhibitory concentration [2] is reported as 10^−4 Molar and the Minimum inhibitory concentration [3] is reported as “N”. The Minimum inhibitory concentration (S. epidermidis C621) was “N”, the Minimum inhibitory concentration (S. pyogenes C721) was “N” and the Minimum inhibitory concentration (E. coli UB1005 C498) was “N”.
In the case of `COc1cccc2c1C(=O)c1c(O)c3c(c(O)c1C2=O)C[C@@](O)(C(=O)CO)C[C@@H]3O[C@H]1C[C@H](N)[C@H](O)[C@H](C)O1` [doxorubicin], the Minimum inhibitory concentration (S. aureus ATCC25923 C622) is reported as 10^−5 Molar, the Minimum inhibitory concentration [2] is reported as 10^−5 Molar and the Minimum inhibitory concentration [3] is reported as 10^−6 Molar. The Minimum inhibitory concentration (S. epidermidis C621) was 10^−6 Molar, the Minimum inhibitory concentration (S. pyogenes C721) was 10^−7 Molar and the Minimum inhibitory concentration (E. coli UB1005 C498) was 10^−4 Molar.
For `COc1cc([C@@H]2c3cc4c(cc3[C@@H](O[C@@H]3O[C@@H]5CO[C@@H](C)O[C@H]5[C@H](O)[C@H]3O)[C@H]3COC(=O)[C@H]23)OCO4)cc(OC)c1O` [etoposide], the Minimum inhibitory concentration (S. aureus ATCC25923 C622) was 10^−5 Molar, the Minimum inhibitory concentration [2] was “N” and the Minimum inhibitory concentration [3] was 10^−5 Molar. The Minimum inhibitory concentration (S. epidermidis C621) was 10^−6 Molar, the Minimum inhibitory concentration (S. pyogenes C721) was 10^−5 Molar and the Minimum inhibitory concentration (E. coli UB1005 C498) was “N”.
In the case of `OC(Cn1cncn1)(Cn1cncn1)c1ccc(F)cc1F` [fluconazole], the “enhancement of antifungal activity” value [1] is reported as “enhances”.
In the case of `NC(=O)NO` [hydroxyurea], the Minimum inhibitory concentration (S. aureus ATCC25923 C622) is reported as “N”, the Minimum inhibitory concentration [2] is reported as 10^−4 Molar and the Minimum inhibitory concentration [3] is reported as “N”. The Minimum inhibitory concentration (S. epidermidis C621) was “N”, the Minimum inhibitory concentration (S. pyogenes C721) was 10^−4 Molar and the Minimum inhibitory concentration (E. coli UB1005 C498) was “N”.
In the case of `CNCCCC12CCC(c3ccccc31)c1ccccc12` [maprotiline, Maprotiline], the “effect on the potency” value [4] is reported as “increases the potency”.
In the case of `CN(Cc1cnc2nc(N)nc(N)c2n1)c1ccc(C(=O)N[C@@H](CCC(=O)O)C(=O)O)cc1` [methotrexate], the Minimum inhibitory concentration (S. aureus ATCC25923 C622) is reported as 10^−5 Molar, the Minimum inhibitory concentration [2] is reported as “N” and the Minimum inhibitory concentration [3] is reported as 10^−6 Molar. The Minimum inhibitory concentration (S. epidermidis C621) was “N”, the Minimum inhibitory concentration (S. pyogenes C721) was 10^−6 Molar and the Minimum inhibitory concentration (E. coli UB1005 C498) was “N”.
With `O=C1c2c(O)ccc(O)c2C(=O)c2c(NCCNCCO)ccc(NCCNCCO)c21` [mitoxantrone] the Minimum inhibitory concentration (S. aureus ATCC25923 C622) was 10^−5 Molar, the Minimum inhibitory concentration [2] was 10^−5 Molar and the Minimum inhibitory concentration [3] was 10^−6 Molar. The Minimum inhibitory concentration (S. epidermidis C621) was 10^−5 Molar, the Minimum inhibitory concentration (S. pyogenes C721) was 10^−6 Molar and the Minimum inhibitory concentration (E. coli UB1005 C498) was 10^−5 Molar.
In the case of `Fc1ccc([C@@H]2CCNC[C@H]2COc2ccc3c(c2)OCO3)cc1` [paroxetine], the p38 activation (p38) is reported as “inhibition”, the AP1 activation (AP1) is reported as “inhibits” and the glucocorticoid receptor trafficking (glucocorticoid receptor) is reported as “does not promote”. The JNK activation (JNK) was “inhibition”, the “NFAT activation, translocation and transactivation” value (NFAT) was “represses” and the “potentiation of prednisolone's ability to transactivate a GRE reporter plasmid” value [7] was “does not promote glucocorticoid receptor trafficking or potentiate”.
In the case of `Nc1ccc(/N=N\c2ccccc2)c(N)n1` [phenazopyridine-HCl], the “solubility in water (in words)” value [6] is listed as “slightly soluble”.
For `CN(C/C=C/C#CC(C)(C)C)Cc1cccc2ccccc12.Cl` [terbinafine, terbinafine hydrochloride], the “enhancement of antifungal activity” value [1] was “enhances”.
For `Oc1cc(Cl)ccc1Oc1ccc(Cl)cc1Cl` [triclosan, Triclosan], the “effect on the potency” value [4] was “increases the potency”.
For `Nc1ncnc2c1ccn2[C@@H]1O[C@H](CO)[C@@H](O)[C@H]1O` [tubercidin], the Minimum inhibitory concentration (S. aureus ATCC25923 C622) was “N”, the Minimum inhibitory concentration [2] was “N” and the Minimum inhibitory concentration [3] was “N”. The Minimum inhibitory concentration (S. epidermidis C621) was “N”, the Minimum inhibitory concentration (S. pyogenes C721) was “N” and the Minimum inhibitory concentration (E. coli UB1005 C498) was “N”.
